{"source": "patent US12414969B2", "about": "“Methods and compositions for reducing clostridium difficile infection” (priority 2014, dated 2025)", "tested_on": "C. difficile", "test": "Addition of secondary bile acids to culture media, C. difficile growth", "conditions": "bile acid added to culture media"}
{"smiles": "C[C@H](CCC(=O)O)[C@H]1CC[C@H]2[C@@H]3CC[C@@H]4C[C@H](O)CC[C@]4(C)[C@H]3C[C@H](O)[C@]12C", "note": "[DCA, deoxycholic acid]", "values": [{"measurement": "C. difficile growth inhibition in culture media", "value": "inhibits c. difficile growth"}]}
